Data reported in Sander's compilation of Henry's law constants (doi:10.1016/0045-6535(85)90029-3).

Assay: Henry solubility constant Hcp at 298.15 K (mol/(m3 Pa))
Details: reference: Oliver (1985)

| SMILES | Henry solubility constant Hcp |
| --- | --- |
| Clc1cccc(Cl)c1Cl [1,2,3-trichlorobenzene] | 0.011 |
| Clc1cc(Cl)c(Cl)cc1Cl [1,2,4,5-tetrachlorobenzene] | 0.0099 |
| Clc1cc(Cl)cc(Cl)c1 [1,3,5-trichlorobenzene] | 0.0052 |
| Clc1cccc(Cl)c1 [1,3-dichlorobenzene] | 0.0055 |
| Clc1ccc(Cl)cc1 [1,4-dichlorobenzene] | 0.0066 |
| Clc1cccc(-c2cccc(Cl)c2Cl)c1Cl [2,2',3,3'-tetrachlorobiphenyl] | 0.082 |
| Clc1cc(Cl)c(-c2cc(Cl)c(Cl)cc2Cl)cc1Cl [2,2',4,4',5,5'-hexachlorobiphenyl] | 0.16 |
| Clc1ccc(Cl)c(-c2cc(Cl)c(Cl)cc2Cl)c1 [2,2',4,5,5'-pentachlorobiphenyl] | 0.14 |
| Clc1ccc(Cl)c(-c2cc(Cl)ccc2Cl)c1 [2,2',5,5'-tetrachlorobiphenyl] | 0.082 |
| Clc1ccc(Cl)c(-c2ccccc2Cl)c1 [2,2',5-trichlorobiphenyl] | 0.049 |
| Cc1c(Cl)ccc(Cl)c1Cl [2,3,6-trichloromethylbenzene] | 0.0066 |
| Cc1cc(Cl)c(Cl)cc1Cl [2,4,5-trichloromethylbenzene] | 0.0066 |
| ClC(Cl)=C(Cl)C(Cl)=C(Cl)Cl [hexachlorobutadiene] | 0.0023 |
| ClC(Cl)=C(Cl)c1c(Cl)c(Cl)c(Cl)c(Cl)c1Cl [octachlorostyrene] | 0.076 |
| Cc1c(Cl)c(Cl)c(Cl)c(Cl)c1Cl [pentachloromethylbenzene] | 0.013 |
